Our source for the IC50 values is patent US9675614B2, “PRMT5 inhibitors and uses thereof” (Epizyme, Inc., priority 2012, dated 2017).

The structures appear in SMILES notation.

Sequence of PRMT5/MEP50 (O14744 other isoform, or with tags, fused parts or gaps): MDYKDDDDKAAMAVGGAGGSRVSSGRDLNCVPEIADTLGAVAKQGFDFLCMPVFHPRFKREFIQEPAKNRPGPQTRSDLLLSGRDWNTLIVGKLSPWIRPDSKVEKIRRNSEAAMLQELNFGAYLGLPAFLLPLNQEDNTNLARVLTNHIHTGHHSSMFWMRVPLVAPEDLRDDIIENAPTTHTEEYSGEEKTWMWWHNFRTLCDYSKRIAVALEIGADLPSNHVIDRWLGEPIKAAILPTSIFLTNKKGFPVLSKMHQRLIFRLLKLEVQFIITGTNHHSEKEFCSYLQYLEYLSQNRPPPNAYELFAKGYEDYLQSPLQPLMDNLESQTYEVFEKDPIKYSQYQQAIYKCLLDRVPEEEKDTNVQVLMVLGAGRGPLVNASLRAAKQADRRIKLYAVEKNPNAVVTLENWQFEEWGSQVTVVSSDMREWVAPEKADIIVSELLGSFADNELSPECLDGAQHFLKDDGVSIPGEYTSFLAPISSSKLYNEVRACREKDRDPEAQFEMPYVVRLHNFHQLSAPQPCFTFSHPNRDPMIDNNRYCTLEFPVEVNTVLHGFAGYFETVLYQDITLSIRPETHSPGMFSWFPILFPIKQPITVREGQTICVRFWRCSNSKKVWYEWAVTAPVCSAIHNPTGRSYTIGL
Sequence of PRMT5/MEP50 (Q9BQA1 other isoform, or with tags, fused parts or gaps partner): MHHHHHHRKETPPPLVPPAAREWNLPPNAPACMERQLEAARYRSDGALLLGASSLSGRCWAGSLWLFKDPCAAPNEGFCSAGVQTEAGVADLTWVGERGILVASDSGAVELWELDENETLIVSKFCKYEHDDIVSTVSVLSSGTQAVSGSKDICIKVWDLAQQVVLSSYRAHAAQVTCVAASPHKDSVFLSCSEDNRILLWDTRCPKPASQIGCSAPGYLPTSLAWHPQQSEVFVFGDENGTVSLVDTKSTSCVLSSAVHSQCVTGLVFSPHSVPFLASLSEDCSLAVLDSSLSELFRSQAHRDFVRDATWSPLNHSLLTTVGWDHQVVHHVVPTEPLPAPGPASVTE

This assay has as its target PRMT5/MEP50 (Homo sapiens (Human), UniProt O14744). In words: PRMT5 Biochemical Assay (PRMT5/MEP50 enzyme assay on peptide substrate, 3H-SAM Flashplate). The settings on record: PRMT5/MEP50 biochemical assay; read-out: Biochemical IC50.
As a reminder, the IC50 is the concentration needed to halve the response being measured. In the case of `CN1CCN(Cc2cccc(C(=O)NCC(O)CN3CCc4ccccc4C3)c2)CC1CO` (stereo not drawn) [Compound 253], the IC50 is under 0.1 µM.

Consider `CN1CCC(Nc2cc(C(=O)NC[C@H](O)CN3CCc4ccccc4C3)ccn2)C1` (stereo partly drawn) [Compound 255], for which the IC50 was under 0.1 µM.

With `O=C(NC[C@H](O)CN1CCc2ccccc2C1)c1cc(OC2CCOCC2)ncn1` [Compound 256], the 50% inhibitory concentration (IC50) is under 0.1 µM.

As for `CS(=O)(=O)N1CCC(Nc2cc(C(=O)NC[C@H](O)CN3CCc4ccccc4C3)ncn2)C1` (stereo partly drawn) [Compound 257], the IC50 is under 0.1 µM.

As to `O=C(NC[C@H](O)CN1CCc2ccccc2C1)c1cc(OC2CCNCC2)ncn1` [Compound 258], the half-inhibitory concentration (IC50) was under 0.1 µM.

Regarding `O=C(NC[C@H](O)CN1CCc2ccccc2C1)c1cncc(NC2CCNC2)c1` (stereo partly drawn) [Compound 259], the IC50 was under 0.1 µM.

Regarding `O=C(NC[C@H](O)CN1CCc2ccccc2C1)c1cncc(OC2CCNCC2)c1` [Compound 260], the IC50 is under 0.1 µM.

With `CN(c1cc(C(=O)NC[C@H](O)CN2CCc3ccccc3C2)ncn1)C1CCOCC1` [Compound 261], the IC50 was under 0.1 µM.

For `CN(CCNc1cc(C(=O)NC[C@H](O)CN2CCc3ccccc3C2)ccn1)S(C)(=O)=O` [Compound 262], the half-maximal inhibitory concentration (IC50) was under 0.1 µM.

For the molecule `CN(CCN(C)S(C)(=O)=O)c1cc(C(=O)NC[C@H](O)CN2CCc3ccccc3C2)ccn1` [Compound 263], the IC50 was under 0.1 µM.

`CN1CCCC(CNc2cc(C(=O)NC[C@H](O)CN3CCc4ccccc4C3)ccn2)C1` (stereo partly drawn) [Compound 264]: the IC50 is under 0.1 µM.

As to `CN1CCOC(CNc2cc(C(=O)NC[C@H](O)CN3CCc4ccccc4C3)ccn2)C1` (stereo partly drawn) [Compound 265], the IC50 is under 0.1 µM.

For `CC(=O)N1CC[C@H](Nc2cccc(C(=O)NC[C@H](O)CN3CCc4ccccc4C3)c2)C1` [Compound 266], the concentration for half-maximal inhibition (IC50) was under 0.1 µM.

Take `CS(=O)(=O)N1CC[C@@H](Nc2cccc(C(=O)NC[C@H](O)CN3CCc4ccccc4C3)c2)C1` [Compound 267]: the IC50 is under 0.1 µM.

As for `CS(=O)(=O)N1CC[C@H](Nc2cccc(C(=O)NC[C@H](O)CN3CCc4ccccc4C3)c2)C1` [Compound 268], the half-inhibitory concentration (IC50) is under 0.1 µM.

Regarding `O=C(NC[C@H](O)CN1CCc2ccccc2C1)c1cc2ccccc2[nH]1` [Compound 269], the IC50 was under 0.1 µM.

Take `O=C(NC[C@H](O)CN1CCc2ccccc2C1)c1ccc2[nH]ccc2c1` [Compound 270]: the IC50 is 1 to 10 µM.

With `O=C(NC[C@H](O)CN1CCc2ccccc2C1)c1cc2ccccc2o1` [Compound 271], the IC50 is under 0.1 µM.

In the case of `O=C(NC[C@H](O)CN1CCc2ccccc2C1)c1nccc2ccccc12` [Compound 272], the IC50 is under 0.1 µM.

For `O=C(NC[C@H](O)CN1CCc2ccccc2C1)c1ccc2ncsc2c1` [Compound 273], the IC50 was under 0.1 µM.

For the molecule `O=C(NC[C@H](O)CN1CCc2ccccc2C1)c1ccc2c(c1)OCCO2` [Compound 274], the IC50 was under 0.1 µM.

In the case of `Cc1cc2ncc(C(=O)NC[C@H](O)CN3CCc4ccccc4C3)c(C)n2n1` [Compound 275], the IC50 lay within 0.101 to 1 µM.

On to `O=C(NC[C@H](O)CN1CCc2ccccc2C1)c1cc2cccc(Cl)c2[nH]1` [Compound 276], for which the IC50 was under 0.1 µM.

For the molecule `CN(CCOc1cccc(C(=O)NCC(O)CN2CCc3ccccc3C2)c1)CC(N)=O` (stereo not drawn) [Compound 277], the IC50 was under 0.1 µM.

On to `CS(=O)(=O)N1CC(Nc2cc(C(=O)NC[C@H](O)CN3CCc4ccccc4C3)ccn2)C1` [Compound 278], for which the IC50 is under 0.1 µM.

As to `CC(=O)N1CC(Nc2cc(C(=O)NC[C@H](O)CN3CCc4ccccc4C3)ccn2)C1` [Compound 279], the IC50 is under 0.1 µM.

As to `O=C(NC[C@H](O)CN1CCc2ccccc2C1)c1cc(NC2CNC2)ncn1` [Compound 280], the half-inhibitory concentration (IC50) was under 0.1 µM.

In the case of `CN1CC(Nc2cc(C(=O)NC[C@H](O)CN3CCc4ccccc4C3)ncn2)C1` [Compound 281], the IC50 is under 0.1 µM.

As for `O=C(NC[C@H](O)CN1CCc2ccccc2C1)c1cc(NC2CN(CC(F)(F)F)C2)ncn1` [Compound 282], the IC50 was under 0.1 µM.

Consider `CS(=O)(=O)N1CC(Nc2cc(C(=O)NC[C@H](O)CN3CCc4ccccc4C3)ncn2)C1` [Compound 283], for which the IC50 was under 0.1 µM.

`CC(=O)N1CC(Nc2cc(C(=O)NC[C@H](O)CN3CCc4ccccc4C3)ncn2)C1` [Compound 284, (S)-6-((1-acetylazetidin-3-yl)amino)-N-(3-(3,4-dihydroisoquinolin-2(1H)-yl)-2-hydroxypropyl)pyrimidine-4-carboxamide]: the half-inhibitory concentration (IC50) is under 0.1 µM.

As for `O=C(NC[C@H](O)CN1CCc2ccccc2C1)c1cc(OC2CCN(CC(F)(F)F)CC2)ncn1` [Compound 285], the IC50 was 0.101 to 1 µM.

Consider `CS(=O)(=O)N1CCC(Oc2cc(C(=O)NC[C@H](O)CN3CCc4ccccc4C3)ncn2)CC1` [Compound 286], for which the IC50 was under 0.1 µM.

Turning to `CC(=O)N1CCC(Oc2cc(C(=O)NC[C@H](O)CN3CCc4ccccc4C3)ncn2)CC1` [Compound 287], the IC50 is under 0.1 µM.

On to `CN1CCC(Oc2cncc(C(=O)NC[C@H](O)CN3CCc4ccccc4C3)c2)CC1` [Compound 288], for which the IC50 was under 0.1 µM.

For the molecule `O=C(NC[C@H](O)CN1CCc2ccccc2C1)c1cncc(OC2CCN(CC(F)(F)F)CC2)c1` [Compound 289], the IC50 is 0.101 to 1 µM.

For `CS(=O)(=O)N1CCC(Oc2cncc(C(=O)NC[C@H](O)CN3CCc4ccccc4C3)c2)CC1` [Compound 290], the IC50 was under 0.1 µM.

For `CC(=O)N(C)CCN(C)c1cc(C(=O)NC[C@H](O)CN2CCc3ccccc3C2)ccn1` [Compound 291], the IC50 was under 0.1 µM.

As for `CN1CCC(CNc2cc(C(=O)NC[C@H](O)CN3CCc4ccccc4C3)ccn2)CC1` [Compound 292], the half-inhibitory concentration (IC50) is under 0.1 µM.

Regarding `CC(=O)N1CC[C@@H](Nc2cccc(C(=O)NC[C@H](O)CN3CCc4ccccc4C3)c2)C1` [Compound 293], the IC50 was under 0.1 µM.

For the molecule `O=C(NC[C@H](O)CN1CCc2ccccc2C1)c1ccc2[nH]cnc2c1` [Compound 294], the IC50 lay within 0.101 to 1 µM.

In the case of `O=C(NC[C@H](O)CN1CCc2ccccc2C1)c1cccc2ccccc12` [Compound 295], the half-inhibitory concentration (IC50) is 0.101 to 1 µM.

For `O=C(NC[C@H](O)CN1CCc2ccccc2C1)c1cc2c(F)cccc2[nH]1` [Compound 296], the IC50 is under 0.1 µM.

As to `CS(=O)(=O)N1CCC(Nc2cc(C(=O)NC[C@H](O)CN3CCc4ccccc4C3)ncn2)CC1` [Compound 297], the IC50 is under 0.1 µM.

In the case of `O=C(NC[C@H](O)CN1CCc2ccccc2C1)c1cncc(NC2CCOCC2)c1` [Compound 298], the IC50 is under 0.1 µM.

Consider `O=C(NC[C@H](O)CN1CCc2ccccc2C1)c1cncc(NC2COC2)c1` [Compound 299], for which the IC50 was under 0.1 µM.

In the case of `O=C(NC[C@H](O)CN1CCc2ccccc2C1)c1cncc(NC2CCN(CC(F)(F)F)CC2)c1` [Compound 300], the IC50 is under 0.1 µM.

For `CS(=O)(=O)N1CCC(Nc2cncc(C(=O)NC[C@H](O)CN3CCc4ccccc4C3)c2)CC1` [Compound 301], the IC50 is under 0.1 µM.

As to `CC(=O)N1CCC(Nc2cncc(C(=O)NC[C@H](O)CN3CCc4ccccc4C3)c2)CC1` [Compound 302], the IC50 was under 0.1 µM.

Regarding `O=C(NC[C@H](O)CN1CCc2ccccc2C1)c1cncc(NC2CCN(CC(F)(F)F)C2)c1` (stereo partly drawn) [Compound 303], the IC50 is under 0.1 µM.

As to `O=C(NC[C@H](O)CN1CCc2ccccc2C1)c1ccc2[nH]nnc2c1` [Compound 305], the IC50 was 0.101 to 1 µM.

Regarding `O=C(NC[C@H](O)CN1CCc2ccccc2C1)c1ccnc(NC2CCOC2)c1` (stereo partly drawn) [Compound 306], the IC50 is under 0.1 µM.

In the case of `Cc1cnc(NC2CCOCC2)cc1C(=O)NC[C@H](O)CN1CCc2ccccc2C1` [Compound 307], the IC50 is under 0.1 µM.

Take `Cc1cnc(NC2CCOC2)cc1C(=O)NC[C@H](O)CN1CCc2ccccc2C1` (stereo partly drawn) [Compound 308]: the IC50 is under 0.1 µM.

Turning to `Cc1cnc(OC2CCOCC2)cc1C(=O)NC[C@H](O)CN1CCc2ccccc2C1` [Compound 309], the IC50 is 0.101 to 1 µM.

Regarding `Cc1ncc(NC2CCNC2)cc1C(=O)NC[C@H](O)CN1CCc2ccccc2C1` (stereo partly drawn) [Compound 310], the IC50 fell in the range of 0.101 to 1 µM.

Regarding `Cn1nc(NC2CCOCC2)cc1C(=O)NCC(O)CN1CCc2ccccc2C1` (stereo not drawn) [Compound 311], the IC50 is under 0.1 µM.

On to `Cn1nc(C(=O)NCC(O)CN2CCc3ccccc3C2)cc1NC1CCOCC1` (stereo not drawn) [Compound 312], for which the IC50 was in the range of 0.101 to 1 µM.

Consider `CNCCNc1cc(C(=O)NC[C@H](O)CN2CCc3ccccc3C2)ccn1` [Compound 314], for which the half-inhibitory concentration (IC50) is under 0.1 µM.

Regarding `CC(=O)N(C)CCNc1cc(C(=O)NC[C@H](O)CN2CCc3ccccc3C2)ccn1` [Compound 315], the IC50 is under 0.1 µM.

Regarding `O=C(NC[C@H](O)CN1CCc2ccccc2C1)c1ccnc(NCCNCC(F)(F)F)c1` [Compound 316], the IC50 is under 0.1 µM.

In the case of `O=C(NC[C@H](O)CN1CCc2ccccc2C1)c1cnc2ccccc2c1` [Compound 317], the IC50 is under 0.1 µM.

For the molecule `O=C(NC[C@H](O)CN1CCc2ccccc2C1)c1ccc2cc(O)ccc2c1` [Compound 318], the IC50 is under 0.1 µM.

For `O=C(NC[C@H](O)CN1CCc2ccccc2C1)c1nc2cc(Br)ccc2[nH]1` [Compound 319], the IC50 is under 0.1 µM.

As for `NCCNc1cc(C(=O)NC[C@H](O)CN2CCc3ccccc3C2)ccn1` [Compound 320], the half-maximal inhibitory concentration (IC50) is under 0.1 µM.

Take `O=C(NC[C@H](O)CN1CCc2ccccc2C1)c1ccc(OC2CCN(CCO)CC2)cc1` [Compound 321]: the IC50 is under 0.1 µM.

In the case of `CC(C)(C)C(=O)N1CCC(Oc2ccc(C(=O)NC[C@H](O)CN3CCc4ccccc4C3)cc2)CC1` [Compound 322], the half-inhibitory concentration (IC50) is under 0.1 µM.

On to `O=C(NC[C@H](O)CN1CCc2ccccc2C1)c1ccnc(OC2CCOCC2)c1` [Compound 323], for which the IC50 is under 0.1 µM.

For `CN(c1cc(C(=O)NC[C@H](O)CN2CCc3ccccc3C2)ccn1)C1CCOCC1` [Compound 324], the IC50 was under 0.1 µM.

With `Cn1nccc1Nc1cc(C(=O)NC[C@H](O)CN2CCc3ccccc3C2)ccn1` [Compound 325], the IC50 is under 0.1 µM.

As for `CC(C)(C)c1cc(Nc2cc(C(=O)NC[C@H](O)CN3CCc4ccccc4C3)ccn2)n[nH]1` [Compound 326], the IC50 was under 0.1 µM.

For `O=C(NC[C@H](O)CN1CCc2ccccc2C1)c1c(O)ccc2ccccc12` [Compound 327], the IC50 fell in the range of 0.101 to 1 µM.
